Measured values: PubChem BioAssay (NCI)
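Following 48 hours of exposure in 96-well plates, responses at five concentrations were used to interpolate endpoints linearly. At the GI50, growth is halved. The concentration for full growth arrest is given as TGI.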

What was measured:
Assay in all cases: DTP human tumour cell line panel, 48 h
SK-OV-3 ovarian = test system: SK-OV-3 ovarian
HL-60(TB) leukemia = test system: HL-60(TB) leukemia
U251 CNS = test system: U251 CNS
SR leukemia = test system: SR leukemia
SN12C renal = test system: SN12C renal
HOP-92 NSCLC = test system: HOP-92 NSCLC
COLO 205 colon = test system: COLO 205 colon
OVCAR-4 ovarian = test system: OVCAR-4 ovarian
HS 578T breast = test system: HS 578T breast
HCC-2998 colon = test system: HCC-2998 colon

CN(CCCl)c1ccc(/C=C/C2=[N+](C)c3ccccc3C2(C)C)cc1
GI50 (SK-OV-3 ovarian): 0.713 µM
TGI (SK-OV-3 ovarian): 5.41 µM
GI50 (HL-60(TB) leukemia): 0.265 µM
TGI (HL-60(TB) leukemia): 0.756 µM
GI50 (U251 CNS): 0.253 µM
TGI (U251 CNS): 11.2 µM
GI50 (SR leukemia): 0.332 µM
TGI (SR leukemia): 12.5 µM
GI50 (SN12C renal): 0.297 µM
TGI (SN12C renal): 1.72 µM
GI50 (HOP-92 NSCLC): 0.288 µM
TGI (HOP-92 NSCLC): 2.2 µM
GI50 (COLO 205 colon): 0.339 µM
TGI (COLO 205 colon): 1.56 µM
GI50 (OVCAR-4 ovarian): 1.62 µM
TGI (OVCAR-4 ovarian): 10 µM
GI50 (HS 578T breast): 1.53 µM
TGI (HS 578T breast): 32.1 µM
GI50 (HCC-2998 colon): 1.6 µM
TGI (HCC-2998 colon): 12.8 µM

Cc1nc2n(c(=O)c1CCN1CCC(c3noc4cc(F)ccc34)CC1)CCCC2
GI50 (SK-OV-3 ovarian): > 50 µM
TGI (SK-OV-3 ovarian): > 50 µM
GI50 (HL-60(TB) leukemia): > 50 µM
TGI (HL-60(TB) leukemia): > 50 µM
GI50 (U251 CNS): > 50 µM
TGI (U251 CNS): > 50 µM
GI50 (SR leukemia): > 50 µM
TGI (SR leukemia): > 50 µM
GI50 (SN12C renal): > 50 µM
TGI (SN12C renal): > 50 µM
GI50 (HOP-92 NSCLC): > 50 µM
TGI (HOP-92 NSCLC): > 50 µM
GI50 (COLO 205 colon): > 50 µM
TGI (COLO 205 colon): > 50 µM
GI50 (OVCAR-4 ovarian): > 50 µM
TGI (OVCAR-4 ovarian): > 50 µM
GI50 (HS 578T breast): > 50 µM
TGI (HS 578T breast): > 50 µM
GI50 (HCC-2998 colon): > 50 µM
TGI (HCC-2998 colon): > 50 µM

CCc1nc(N)nc(N)c1-c1ccc(NCCc2ccccc2)c([N+](=O)[O-])c1
TGI (SK-OV-3 ovarian): > 74.6 µM
TGI (HL-60(TB) leukemia): 6.77 µM
TGI (U251 CNS): 47.3 µM
TGI (SR leukemia): 24 µM
TGI (SN12C renal): > 71.3 µM
TGI (HOP-92 NSCLC): 35.7 µM
TGI (COLO 205 colon): 16.9 µM
TGI (OVCAR-4 ovarian): 46.2 µM
TGI (HS 578T breast): > 75.4 µM
TGI (HCC-2998 colon): 11.3 µM

CCC1CCc2nc3sc(C(=O)Nc4ccccc4C)c(N)c3cc2C1 (stereo not given)
GI50 (SK-OV-3 ovarian): 0.855 µM
TGI (SK-OV-3 ovarian): > 100 µM
GI50 (HL-60(TB) leukemia): 0.214 µM
TGI (HL-60(TB) leukemia): 0.617 µM
GI50 (U251 CNS): 0.648 µM
TGI (U251 CNS): > 100 µM
GI50 (SR leukemia): 0.196 µM
TGI (SR leukemia): 14.6 µM
GI50 (SN12C renal): 8.37 µM
TGI (SN12C renal): > 100 µM
GI50 (HOP-92 NSCLC): 0.637 µM
TGI (HOP-92 NSCLC): > 100 µM
GI50 (COLO 205 colon): 0.451 µM
TGI (COLO 205 colon): > 100 µM
GI50 (OVCAR-4 ovarian): 0.694 µM
TGI (OVCAR-4 ovarian): > 100 µM
GI50 (HS 578T breast): 0.514 µM
TGI (HS 578T breast): > 100 µM
GI50 (HCC-2998 colon): 4.42 µM
TGI (HCC-2998 colon): > 100 µM

CC(=O)[O][Hg][c]1ccccc1
GI50 (SK-OV-3 ovarian): 1.37 µM
TGI (SK-OV-3 ovarian): 2.68 µM
GI50 (HL-60(TB) leukemia): 0.201 µM
TGI (HL-60(TB) leukemia): 0.487 µM
GI50 (U251 CNS): 0.453 µM
TGI (U251 CNS): 1.75 µM
GI50 (SR leukemia): 0.143 µM
TGI (SR leukemia): 0.537 µM
GI50 (SN12C renal): 0.234 µM
TGI (SN12C renal): 0.644 µM
GI50 (HOP-92 NSCLC): 0.299 µM
TGI (HOP-92 NSCLC): 0.92 µM
GI50 (COLO 205 colon): 0.65 µM
TGI (COLO 205 colon): 1.67 µM
GI50 (OVCAR-4 ovarian): 0.43 µM
TGI (OVCAR-4 ovarian): 2.24 µM
GI50 (HS 578T breast): 0.289 µM
TGI (HS 578T breast): 1.67 µM
GI50 (HCC-2998 colon): 1.64 µM
TGI (HCC-2998 colon): 3.11 µM

COc1cc2nc3cc([N+](=O)[O-])ccc3c(NCCCNCC(C)(C)O)c2cc1OC
GI50 (SK-OV-3 ovarian): 0.506 µM
TGI (SK-OV-3 ovarian): 2.59 µM
GI50 (HL-60(TB) leukemia): 0.694 µM
TGI (HL-60(TB) leukemia): 2.95 µM
GI50 (U251 CNS): 0.303 µM
TGI (U251 CNS): 1.01 µM
GI50 (SR leukemia): 0.321 µM
TGI (SR leukemia): 3.06 µM
GI50 (SN12C renal): 0.232 µM
TGI (SN12C renal): 1.11 µM
GI50 (HOP-92 NSCLC): 0.225 µM
TGI (HOP-92 NSCLC): 0.726 µM
GI50 (COLO 205 colon): 0.176 µM
TGI (COLO 205 colon): 0.442 µM
GI50 (OVCAR-4 ovarian): 0.198 µM
TGI (OVCAR-4 ovarian): 0.777 µM
GI50 (HS 578T breast): 0.511 µM
TGI (HS 578T breast): 5.39 µM
GI50 (HCC-2998 colon): 0.233 µM
TGI (HCC-2998 colon): 0.62 µM

COc1ccc(C(=O)c2cc3c(N)c(C(=O)Nc4cccc(Cl)c4C)sc3nc2C)cc1
GI50 (SK-OV-3 ovarian): 0.161 µM
TGI (SK-OV-3 ovarian): > 25 µM
GI50 (HL-60(TB) leukemia): 0.0759 µM
TGI (HL-60(TB) leukemia): 0.226 µM
GI50 (U251 CNS): 0.104 µM
TGI (U251 CNS): > 25 µM
GI50 (SR leukemia): 0.0613 µM
TGI (SR leukemia): 0.511 µM
GI50 (SN12C renal): 0.155 µM
TGI (SN12C renal): > 25 µM
GI50 (HOP-92 NSCLC): 0.292 µM
TGI (HOP-92 NSCLC): 6.67 µM
GI50 (COLO 205 colon): 0.109 µM
TGI (COLO 205 colon): 7.13 µM
GI50 (OVCAR-4 ovarian): 0.851 µM
TGI (OVCAR-4 ovarian): > 25 µM
GI50 (HS 578T breast): 0.0832 µM
TGI (HS 578T breast): > 25 µM
GI50 (HCC-2998 colon): 0.28 µM
TGI (HCC-2998 colon): > 25 µM

O=C(OCc1ccc2c(Cl)cc(Cl)c(O)c2n1)c1cc2ccccc2[nH]1
GI50 (SK-OV-3 ovarian): 3.6 µM
TGI (SK-OV-3 ovarian): 13.3 µM
GI50 (HL-60(TB) leukemia): 0.374 µM
TGI (HL-60(TB) leukemia): 1.69 µM
GI50 (U251 CNS): 1.61 µM
TGI (U251 CNS): 3.22 µM
GI50 (SR leukemia): 0.324 µM
TGI (SR leukemia): 1.92 µM
GI50 (SN12C renal): 0.285 µM
TGI (SN12C renal): 0.939 µM
GI50 (HOP-92 NSCLC): 0.228 µM
TGI (HOP-92 NSCLC): 0.722 µM
GI50 (COLO 205 colon): 0.834 µM
TGI (COLO 205 colon): 2.45 µM
GI50 (OVCAR-4 ovarian): 0.596 µM
TGI (OVCAR-4 ovarian): 1.45 µM
GI50 (HS 578T breast): 1.62 µM
TGI (HS 578T breast): 4.48 µM
GI50 (HCC-2998 colon): 1.51 µM
TGI (HCC-2998 colon): 3.02 µM
